Measured values: patent US9029378B2, “Substituted bicyclic aromatic carboxamide and urea compounds as vanilloid receptor ligands” (Gruenenthal GmbH, priority 2011, dated 2015)

target: T1, vanilloid receptor 1 (VR1/TRPV1 receptor) (Homo sapiens, UniProt Q8NER1); experiment: Functional testing on the vanilloid receptor 1 (FLIPR Ca2+ influx assay, capsaicin); type: cell-based, human being; settings: Cap=capsaicin (100 nM); Ki from IC50 by Cheng-Prusoff equation; read-out: (f) Ki (human being) [nM] Cap
T1 construct: expressed in transfected cells; host or cells: CHO K1
T1 sequence (Q8NER1 whole entry): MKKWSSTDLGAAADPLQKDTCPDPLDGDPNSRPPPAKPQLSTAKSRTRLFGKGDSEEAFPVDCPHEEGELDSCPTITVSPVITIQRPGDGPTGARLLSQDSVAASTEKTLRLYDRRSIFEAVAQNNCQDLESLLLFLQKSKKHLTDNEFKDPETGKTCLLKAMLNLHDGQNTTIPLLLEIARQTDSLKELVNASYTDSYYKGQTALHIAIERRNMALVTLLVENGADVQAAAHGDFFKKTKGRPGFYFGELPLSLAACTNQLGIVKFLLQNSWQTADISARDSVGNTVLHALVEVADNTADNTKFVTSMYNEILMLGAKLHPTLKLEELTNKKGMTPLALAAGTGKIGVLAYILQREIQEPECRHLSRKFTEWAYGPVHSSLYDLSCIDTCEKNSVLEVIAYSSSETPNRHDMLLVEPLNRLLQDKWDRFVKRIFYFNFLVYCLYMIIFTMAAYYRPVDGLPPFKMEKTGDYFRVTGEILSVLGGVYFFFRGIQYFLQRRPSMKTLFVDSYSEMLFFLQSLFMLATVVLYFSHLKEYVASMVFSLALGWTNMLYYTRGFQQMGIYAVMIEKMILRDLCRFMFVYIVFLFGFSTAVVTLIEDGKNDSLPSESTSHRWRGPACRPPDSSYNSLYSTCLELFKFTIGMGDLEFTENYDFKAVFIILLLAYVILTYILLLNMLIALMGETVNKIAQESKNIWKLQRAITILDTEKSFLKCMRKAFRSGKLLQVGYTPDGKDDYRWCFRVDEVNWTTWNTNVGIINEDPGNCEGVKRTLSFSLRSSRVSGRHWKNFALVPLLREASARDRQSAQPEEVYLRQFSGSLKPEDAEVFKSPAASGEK
Summary of the method: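 Ca2+ influx was read with Fluo-4 on a FLIPR against 100 nM capsaicin, in CHO K1 cells transfected with human VR1. The detailed protocol describes rat dorsal root ganglion neurons cultured 2–3 days on laminin/poly-D-lysine plates in medium with 25 ng/mL NGF.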

First: Cc1nccc2cccc(NC(=O)NCc3ccc(C(F)(F)F)nc3N3CCC(C)CC3)c12 [Example 86, 1-(1-Methylisoquinolin-8-yl)-3-((2-(4-methylpiperidin-1-yl)-6-(trifluoromethyl)pyridin-3-yl)methyl)urea]
Second: Cc1cc2cccc(NC(=O)NCc3ccc(C(F)(F)F)nc3N3CCC(C)CC3)c2cn1 [Example 87, 1-(3-Methylisoquinolin-8-yl)-3-((2-(4-methylpiperidin-1-yl)-6-(trifluoromethyl)pyridin-3-yl)methyl)urea]
The Ki of the first is 3.5-fold higher: 52 nM for the first, 15 nM for the second.

First: COc1ccc(NC(=O)NCc2ccc(C(F)(F)F)nc2N2CCC(C)CC2)c2cnccc12 [Example 88, 1-(5-Methoxyisoquinolin-8-yl)-3-((2-(4-methylpiperidin-1-yl)-6-(trifluoromethyl)pyridin-3-yl)methyl)urea]
Second: CC1CCN(c2nc(C(F)(F)F)ccc2CNC(=O)Nc2cccc3c(O)ncnc23)CC1 [Example 89, 1-(4-Hydroxyquinazolin-8-yl)-3-((2-(4-methylpiperidin-1-yl)-6-(trifluoromethyl)pyridin-3-yl)methyl)urea]
The Ki of the first is 3.6-fold higher: 62 nM for the first, 17 nM for the second.

`CC1CCN(c2nc(C(F)(F)F)ccc2CNC(=O)Nc2ccc3cncnc3c2)CC1` [Example 91, 1-((2-(4-Methylpiperidin-1-yl)-6-(trifluoromethyl)pyridin-3-yl)methyl)-3-(quinazolin-7-yl)urea] and “N-(2-(4-Methylpiperidin-1-yl)-4-(trifluoromethyl)benzyl)-2-(quinolin-3-yl)propanamide [Example 16]” are within 1.5-fold of each other in Ki: 8 nM for the first, 10 nM for the second.
